Source: paper PMC10274570, “Preclinical characterization of WB737, a potent and selective STAT3 inhibitor, in natural killer/T‐cell lymphoma” (MedComm, 2023)

How the values were obtained:
[1] = target: T1, signal transducer and activator of transcription 3 (STAT3) (Homo sapiens, UniProt P40763); assay: microscale thermophoresis with labeled purified His-STAT3 […]-722 (reference inhibitor); type: binding
T1 construct: His-STAT3 127-722

[2] = target: T1, signal transducer and activator of transcription 3 (STAT3); assay: microscale thermophoresis with labeled purified His-STAT3 […]-722; type: binding

T1 sequence (P40763 127-722): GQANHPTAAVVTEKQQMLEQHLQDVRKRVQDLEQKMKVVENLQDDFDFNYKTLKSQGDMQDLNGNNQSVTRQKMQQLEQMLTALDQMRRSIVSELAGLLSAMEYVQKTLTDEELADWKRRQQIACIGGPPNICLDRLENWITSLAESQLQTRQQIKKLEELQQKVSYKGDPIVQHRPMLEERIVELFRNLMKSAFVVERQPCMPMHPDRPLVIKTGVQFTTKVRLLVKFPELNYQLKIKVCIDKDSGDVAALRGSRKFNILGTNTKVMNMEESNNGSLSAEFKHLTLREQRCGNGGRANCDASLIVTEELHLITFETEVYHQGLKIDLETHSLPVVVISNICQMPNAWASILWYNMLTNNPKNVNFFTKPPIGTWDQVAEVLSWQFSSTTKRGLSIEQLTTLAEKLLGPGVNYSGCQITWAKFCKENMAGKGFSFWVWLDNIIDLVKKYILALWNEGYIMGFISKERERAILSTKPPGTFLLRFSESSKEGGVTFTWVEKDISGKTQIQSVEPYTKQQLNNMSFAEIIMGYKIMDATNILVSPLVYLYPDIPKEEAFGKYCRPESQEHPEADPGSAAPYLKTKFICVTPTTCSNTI

Molecule | Kd [1] | Kd [2]
O=[N+]([O-])c1ccc2c(c1)S(=O)(=O)C=C2 [Stattic] | 6.51 ± 0.82 µM | –
WB737 | – | 1.34 ± 0.19 nM
